Data set [1] is described as follows: oral pharmacokinetics (plasma, brain, CSF). The data set is classed as in vivo, Sprague Dawley rats. Particulars: rat, per os 10 mg/kg; for AUC(0-t) / bioavailability / Tmax / Cmax: Sprague-Dawley, plasma, po, 10 mg/kg; for Tmax: normal saline (* in 5% NMP, 5% Solutol HS, 90% normal saline), read-out: Tmax; for Cmax: read-out: Cmax.
Description: In another experiment, Sprague Dawley rats were dosed per os using a normal saline formulation containing 10 mg/kg of the compounds identified in the table below (except for the compounds marked with an asterisk (“*”) that were delivered in 5% NMP, 5% Solutol® HS and 90% normal saline formulation). Plasma, brain, and CSF samples were analyzed at various time points over a 24 hour period.
A further data set concerns the target T1, NMDAR2A (Homo sapiens, UniProt Q12879).
T1 construct: expressed in transfected cells; host or cells: HEK cells (membrane extract)
Description: [3H]MK-801 binding in NMDAR expressing HEK cell membranes (facilitation of NMDAR activation). The data set is classed as biochemical. To be noted: 50 μM glutamate; for EC50: read-out: B: log EC50 (converted); for Emax: 0.25 h, read-out: A: % maximal [3H]MK-801 binding relative to 1 mM glycine. As to the method: (§1) Assays were conducted as described by Moskal et al., “GLYX-13: a monoclonal antibody-derived peptide that acts as an N-methyl-D-aspartate receptor modulator,” Neuropharmacology, 49, 1077-87, 2005. These studies were designed to determine if the test compounds act to facilitate NMDAR activation in NMDAR2A, NMDAR2B, NMDAR2C or NMDAR2D expressing HEK cell membranes as measured by increases in [^3H]MK-801 binding.
(§2) In the assay, 300 μg of NMDAR expressing HEK cell membrane extract protein was preincubated for 15 minutes at 25° C. in the presence of saturating concentrations of glutamate (50 μM) and varying concentrations of test compound (1×10^15M−1×10^−7M), or 1 mM glycine. Following the addition of 0.3 μCi of [^3H]MK-801 (22.5 Ci/mmol), reactions were again incubated for 15 minutes at 25° C. (nonequilibrium conditions). Bound and free [^3H]MK-801 were separated via rapid filtration using a Brandel apparatus.
(§3) In analyzing the data, the DPM (disintegrations per minute) of [^3H]MK-801 remaining on the filter were measured for each concentration of test compound or for 1 mM glycine. The DPM values for each concentration of a ligand (N=2) were averaged. The baseline value was determined from the best fit curve of the DPM values modeled using the GraphPad program and the log(agonist) vs. response (three parameters) algorithm was then subtracted from all points in the dataset. The % maximal [^3H]MK-801 binding was then calculated relative to that of 1 mM glycine: all baseline subtracted DPM values were divided by the average value for 1 mM glycine. The EC50 and % maximal activity were then obtained from the best fit curve of the % maximal [^3H]MK-801 binding data modelled using the GraphPad program and the log(agonist) vs. response (three parameters) algorithm.
(§4) The tables below summarize the results for the wild type NMDAR agonists NMDAR2A, NMDAR2B, NMDAR2C, and NMDAR2D, and whether the compound is not an agonist (−), is an agonist (+), or is a strong agonist (++), where column A is based on the % maximal [^3H]MK-801 binding relative to 1 mM glycine (−=0; <100%=+; and >100%=++); and column B is based on log EC50 values (0=−; ≥1×10^−9 M (e.g., −8)=+; and <1×10^−9 M (e.g., −10)=++).

In a further data set the target is T2, NMDAR2B (Homo sapiens, UniProt Q13224).
T2 construct: expressed in transfected cells; host or cells: HEK cells (membrane extract)
T2 sequence (Q13224 27-1484, species assumed, other chains not shown): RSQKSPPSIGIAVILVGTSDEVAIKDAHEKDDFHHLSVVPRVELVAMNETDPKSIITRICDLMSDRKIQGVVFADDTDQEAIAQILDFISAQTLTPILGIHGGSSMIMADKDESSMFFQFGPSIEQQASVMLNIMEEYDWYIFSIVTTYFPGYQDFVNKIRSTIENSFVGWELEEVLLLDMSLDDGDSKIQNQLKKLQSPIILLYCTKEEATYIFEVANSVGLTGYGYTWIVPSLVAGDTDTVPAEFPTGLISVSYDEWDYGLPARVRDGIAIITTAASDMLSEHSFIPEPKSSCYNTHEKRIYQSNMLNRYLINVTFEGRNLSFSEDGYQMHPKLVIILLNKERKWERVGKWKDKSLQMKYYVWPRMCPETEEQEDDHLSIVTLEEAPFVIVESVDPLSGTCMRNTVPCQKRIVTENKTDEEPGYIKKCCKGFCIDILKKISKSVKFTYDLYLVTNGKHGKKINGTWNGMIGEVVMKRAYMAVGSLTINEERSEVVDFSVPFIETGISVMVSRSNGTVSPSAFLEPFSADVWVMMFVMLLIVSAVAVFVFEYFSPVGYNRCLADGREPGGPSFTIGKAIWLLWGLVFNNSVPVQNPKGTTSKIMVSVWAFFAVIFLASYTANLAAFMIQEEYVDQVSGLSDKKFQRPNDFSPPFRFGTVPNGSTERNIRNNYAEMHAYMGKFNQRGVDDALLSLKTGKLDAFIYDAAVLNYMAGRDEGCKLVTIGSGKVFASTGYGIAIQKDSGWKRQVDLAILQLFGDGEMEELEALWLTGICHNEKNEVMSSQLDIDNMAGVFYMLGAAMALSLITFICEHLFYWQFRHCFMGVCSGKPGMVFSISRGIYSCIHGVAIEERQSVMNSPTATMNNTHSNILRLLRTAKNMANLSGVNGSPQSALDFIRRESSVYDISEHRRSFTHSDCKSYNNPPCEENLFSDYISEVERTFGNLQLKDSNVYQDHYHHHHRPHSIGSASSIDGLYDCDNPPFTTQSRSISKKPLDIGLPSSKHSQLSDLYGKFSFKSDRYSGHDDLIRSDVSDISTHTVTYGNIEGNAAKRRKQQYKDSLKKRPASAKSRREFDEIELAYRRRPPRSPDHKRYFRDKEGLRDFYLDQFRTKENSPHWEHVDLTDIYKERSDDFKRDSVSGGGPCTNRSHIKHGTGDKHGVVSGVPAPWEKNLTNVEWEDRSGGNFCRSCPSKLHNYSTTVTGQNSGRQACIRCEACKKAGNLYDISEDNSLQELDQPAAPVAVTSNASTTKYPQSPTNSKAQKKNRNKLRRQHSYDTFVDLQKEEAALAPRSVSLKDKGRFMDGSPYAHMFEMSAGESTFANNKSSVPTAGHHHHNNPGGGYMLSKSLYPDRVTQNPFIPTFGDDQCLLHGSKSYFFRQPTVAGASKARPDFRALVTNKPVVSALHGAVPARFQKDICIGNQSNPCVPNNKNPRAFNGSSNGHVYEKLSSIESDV
The data set is described as above. It is filed as biochemical. Particulars: 50 μM glutamate; for EC50: read-out: B: log EC50 (converted); for Emax: 0.25 h, read-out: A: % maximal [3H]MK-801 binding relative to 1 mM glycine. The protocol:
as §1, §2, §3, §4

Another data set has as its system Sprague Dawley rats. Description: Porsolt forced swim test. It is filed as in vivo, rat. To be noted: 0.1 mg/kg. The protocol:
A non-clinical in vivo pharmacology study (Porsolt assay) was performed to measure antidepressant-like effects. A negative control (0.5% sodium carboxymethyl cellulose in 0.9% sterile saline vehicle) and a positive control (fluoxetine) are shown for comparison against test compound. The study allowed for the evaluation of the effects of each compound on the Porsolt forced swim test as assessed by the rats' response (reduced floating time) during a 5-minute swimming test.
Male 2-3 month old Sprague Dawley rats were used (Harlan, Indianapolis, Ind.). Rats were housed in Lucite cages with aspen wood chip bedding, maintained on a 12:12 light:dark cycle (lights on at 5 AM), and given ad libitum access to Purina lab chow (USA) and tap water throughout the study.
The Porsolt forced swim test adapted for use in rats was performed as described by Burgdorf et al., (The long-lasting antidepressant effects of rapastinel (GLYX-13) are associated with a metaplasticity process in the medial prefrontal cortex and hippocampus. Neuroscience 308:202-211, 2015). Animals were placed in a 46 cm tall×20 cm in diameter clear glass tube filled to 30 cm with tap water (23±1° C.) for 15 min on the first day (habituation) and 5 min on the subsequent test day. Positive control fluoxetine was dosed 3 times (24 h, 5 h and 1 h) prior to testing. Animals were tested 1 h or 24 h post-dosing with the test compounds or vehicle. Animals received a 15 min habituation session 1 day before the 5 min test. A subset of compounds tested at 1 h post-dosing were retested at 1 wk post-dosing in the same sets of animals. Water was changed after every other animal. Animals were videotaped, and floating time as defined as the minimal amount of effort required to keep the animals head above water was scored offline by a blinded experimenter with high inter-rater reliability (Pearson's r>0.9).
Each compound tested at dose level shown. Significance vs. vehicle group for each experiment is marked. […] A compound marked “No” was not statistically significant from vehicle. Data was averaged for test compound and vehicle groups (N approximately 8 per group) and the percent reduction in floating for group treated with test compound relative to group treated with vehicle is shown.

A short description of a further data set: IV pharmacokinetics. It is filed as in vivo, Sprague Dawley rats. To be noted: rat, normal saline (* in 5% NMP, 5% Solutol HS, 90% normal saline); for AUC(0-t) / half-life / C0 / Vd: Sprague-Dawley, in vivo, iv, 2 mg/kg; for C0: read-out: C0; for Vd: read-out: Vss; for CI: intravenous 2 mg/kg. The text has this: The table below summarizes the results of the IV pharmacokinetics.

The structures appear in SMILES notation.

T1 sequence (Q12879 23-1464, species assumed, other chains not shown): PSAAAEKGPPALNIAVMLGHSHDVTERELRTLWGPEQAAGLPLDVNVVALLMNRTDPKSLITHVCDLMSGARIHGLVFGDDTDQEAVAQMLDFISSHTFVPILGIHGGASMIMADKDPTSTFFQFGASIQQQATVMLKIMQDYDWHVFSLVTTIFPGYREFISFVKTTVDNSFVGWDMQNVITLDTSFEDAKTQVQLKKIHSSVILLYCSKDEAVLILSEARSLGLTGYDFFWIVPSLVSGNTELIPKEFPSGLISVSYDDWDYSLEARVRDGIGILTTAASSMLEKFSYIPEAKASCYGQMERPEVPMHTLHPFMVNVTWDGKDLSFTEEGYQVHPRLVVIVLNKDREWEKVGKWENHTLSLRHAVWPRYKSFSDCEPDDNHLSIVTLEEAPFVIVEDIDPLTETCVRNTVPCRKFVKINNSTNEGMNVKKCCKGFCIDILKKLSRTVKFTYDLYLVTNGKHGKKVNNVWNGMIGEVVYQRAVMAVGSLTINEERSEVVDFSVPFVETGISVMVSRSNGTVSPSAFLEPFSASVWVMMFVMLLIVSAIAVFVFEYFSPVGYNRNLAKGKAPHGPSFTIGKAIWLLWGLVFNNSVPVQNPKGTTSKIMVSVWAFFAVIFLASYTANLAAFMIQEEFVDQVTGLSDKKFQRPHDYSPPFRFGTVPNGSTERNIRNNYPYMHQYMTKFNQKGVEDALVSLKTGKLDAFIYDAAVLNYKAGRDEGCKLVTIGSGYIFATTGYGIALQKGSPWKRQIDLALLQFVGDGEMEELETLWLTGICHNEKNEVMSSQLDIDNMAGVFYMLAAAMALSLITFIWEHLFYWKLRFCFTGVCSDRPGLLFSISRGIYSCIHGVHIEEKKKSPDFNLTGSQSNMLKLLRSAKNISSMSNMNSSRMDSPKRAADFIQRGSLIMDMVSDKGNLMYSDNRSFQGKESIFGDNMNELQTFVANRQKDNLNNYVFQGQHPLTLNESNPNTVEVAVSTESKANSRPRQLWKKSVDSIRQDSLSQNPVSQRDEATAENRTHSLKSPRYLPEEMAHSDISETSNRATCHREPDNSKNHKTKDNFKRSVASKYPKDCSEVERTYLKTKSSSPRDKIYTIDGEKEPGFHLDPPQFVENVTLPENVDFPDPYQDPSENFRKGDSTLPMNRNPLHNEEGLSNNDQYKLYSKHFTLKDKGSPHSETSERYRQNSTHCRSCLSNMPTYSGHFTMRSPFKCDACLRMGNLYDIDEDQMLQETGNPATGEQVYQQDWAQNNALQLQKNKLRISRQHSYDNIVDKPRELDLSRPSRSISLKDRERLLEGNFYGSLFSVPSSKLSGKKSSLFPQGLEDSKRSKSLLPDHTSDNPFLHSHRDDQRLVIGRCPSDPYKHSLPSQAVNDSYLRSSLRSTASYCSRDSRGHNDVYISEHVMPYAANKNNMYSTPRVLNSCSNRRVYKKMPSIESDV

By AUC(0-t) is commonly meant the area under the concentration-time curve up to a stated or last time point. Broadly, the bioavailability is dose-corrected exposure relative to a reference, in per cent. By Tmax is commonly meant the time at which the peak concentration occurs. One may read the Cmax as the maximum level reached in the sampled fluid or tissue. The EC50 is the concentration at which the effect is half-maximal. The half-life is how long it takes for the measured level to halve. With `NC(=O)C(CO)N1CC2(CCCCC2)C1=O` (single isomer, unassigned) [AT, 3-hydroxy-2-(l-oxo-2-azaspiro[3.5]nonan-2-yl)propanamide], in data set [1], the AUC(0-t) worked out at 8340 ng·h/mL, the bioavailability was found to be 80%, the Tmax was determined as 15 min and the Cmax is 6520 ng/mL. In data set [1], the “CSF Cmax” value came to 1758 ng/mL and the “Brain Cmax” value is reported as 120 ng/mL. Besides, at NMDAR2A, the “A: % maximal [3H]MK-801 binding relative to 1 mM glycine” value is reported as “+ (<100%=+)” and the EC50 is under 1 nM. Moreover, at NMDAR2B, the “A: % maximal [3H]MK-801 binding relative to 1 mM glycine” value is recorded as “+ (<100%=+)” and the concentration giving a half-maximal response (EC50) is under 1 nM. In the data set on Sprague Dawley rats (1 wk post-dose), the “% reduction in float time” value is recorded as 55.6% and the Significance vs. vehicle result is “Yes (statistically significant (p<=0.05) from vehicle at dose level shown)”. In addition, in the data set on Sprague Dawley rats (1 h post-dose), the “% reduction in float time” value came to 63.4% and the Significance vs. vehicle result is “Yes (statistically significant (p<=0.05) from vehicle at dose level shown)”. Moreover, in “IV pharmacokinetics”, the AUC(0-t) came out at 2090 ng·h/mL, the half-life was 143 min, the C0 came out at 2760 ng/mL and the Vd was found to be 1.14 L/kg. In addition, the CI in “IV pharmacokinetics” was determined as 15.94 mL/min/kg.

As for `CC1CCC2(CC1)CN(C(CCC(N)=O)C(N)=O)C2=O` (single isomer, unassigned) [BF, 2-(7-methyl-1-oxo-2-azaspiro[3.5]nonan-2-yl)pentanediamide], in data set [1], the AUC(0-t) amounted to 5290 ng·h/mL, the bioavailability was 100%, the Tmax is 30 min and the Cmax came to 3020 ng/mL. Further, in data set [1], the “CSF Cmax” value stood at 56.6 ng/mL and the “Brain Cmax” value is recorded as 61.2 ng/mL. Moreover, on NMDAR2A, the “A: % maximal [3H]MK-801 binding relative to 1 mM glycine” value was “+ (<100%=+)” and the EC50 is under 1 nM. Also, at NMDAR2B, the “A: % maximal [3H]MK-801 binding relative to 1 mM glycine” value is “+ (<100%=+)” and the EC50 was under 1 nM. In the data set with Sprague Dawley rats (1 h post-dose), the “% reduction in float time” value is 84.4% and the Significance vs. vehicle entry is on record as “Yes (statistically significant (p<=0.05) from vehicle at dose level shown)”. Also, in “IV pharmacokinetics”, the exposure AUC(0-t) was 973 ng·h/mL, the half-life is 90.6 min, the C0 was 2220 ng/mL and the Vd amounted to 1.52 L/kg. In “IV pharmacokinetics”, this compound registered a CI of 34.13 mL/min/kg.

In the case of `C[C@@H](O)[C@@H](C(N)=O)N1CC2(CCCCC2)C1=O` [Compound AA, (2S,3R)-3-hydroxy-2-(1-oxo-2-azaspiro[3.5]nonan-2-yl)butanamide], in data set [1], the exposure AUC(0-t) stood at 1540 ng·h/mL, the bioavailability was 78%, the Tmax was 19.8 min and the Cmax amounted to 1230 ng/mL. Besides, the Emax on NMDAR2A amounted to 0%. Also, on NMDAR2B, the concentration for a half-maximal effect (EC50) was under 1 nM and the Emax was under 100%. For the same compound, in the data set with Sprague Dawley rats (1 h post-dose), the “% reduction in float time” value is 42.0% and the Significance vs. vehicle result is recorded as “Yes (statistically significant (p<=0.05) from vehicle at dose level shown)”. In the data set on Sprague Dawley rats (24 h post-dose), the “% reduction in float time” value came to 48.60% and the Significance vs. vehicle result was “Yes (statistically significant (p<=0.05) from vehicle at dose level shown)”. In “IV pharmacokinetics”, the AUC(0-t) is 397 ng·h/mL, the half-life is 35.4 min, the C0 stood at 608 ng/mL and the Vd was 2.23 L/kg. In the data set “IV pharmacokinetics”, this compound registered a CI of 84.91 mL/min/kg.

With `O=C1NCC12CCCCC2` [Compound AB, 2-azaspiro[3.5]nonan-1-one], in data set [1], the AUC(0-t) is 11600 ng·h/mL, the bioavailability is 88%, the Tmax is 25.2 min and the Cmax was 7690 ng/mL. On NMDAR2A, the EC50 is at least 1 nM and the Emax was under 100%. Also, at NMDAR2B, the EC50 was under 1 nM and the Emax is under 100%. For the same compound, in the data set on Sprague Dawley rats (1 h post-dose), the “% reduction in float time” value is 73.2% and the Significance vs. vehicle entry is “Yes (statistically significant (p<=0.05) from vehicle at dose level shown)”. In the data set on Sprague Dawley rats (24 h post-dose), the “% reduction in float time” value is listed as 79.90% and the Significance vs. vehicle result is listed as “Yes (statistically significant (p<=0.05) from vehicle at dose level shown)”. Besides, in the data set “IV pharmacokinetics”, the AUC(0-t) came to 2650 ng·h/mL, the half-life was 205 min, the C0 came to 2050 ng/mL and the Vd is 1.13 L/kg. The compound also yielded a CI in “IV pharmacokinetics” of 16.1 mL/min/kg.
